{
  "source": "patent US20230407243A1",
  "about": "“GENETIC PLATFORM TO INVESTIGATE THE FUNCTIONS OF BACTERIAL DRUG EFFLUX PUMPS” (priority 2022, published 2023)",
  "type_in_all_cases": "cell-based, Escherichia coli",
  "key": {"E. coli EKO-35": {"tested_on": "E. coli EKO-35", "assay": "microbe, parasite or virus in culture", "how_it_was_run": "(§1)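 OD600 read-out, background-corrected, after 18 h at 37 °C with shaking. Compounds were tested in duplicate as 2-fold series in MHB II, with DMSO as solvent control. Inoculum was a 1/2000 dilution of an OD600 ~1.0 PBS suspension.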"}, "E. coli ΔtolC": {"tested_on": "E. coli ΔtolC", "assay": "microbe, parasite or virus in culture", "conditions": "technical duplicate", "how_it_was_run": "as §1"}, "[1]": {"tested_on": "wild-type E. coli K-12 str. BW25113", "assay": "microbe, parasite or virus in culture", "conditions": "technical duplicate", "how_it_was_run": "as §1"}, "EKO-35 araC::acrBD408A": {"tested_on": "EKO-35 araC::acrBD408A", "assay": "MIC susceptibility profiling, efflux platform", "how_it_was_run": "as §1"}, "EKO-35 araC::acrB": {"tested_on": "EKO-35 araC::acrB", "assay": "MIC susceptibility profiling, efflux platform", "how_it_was_run": "as §1"}, "EKO-35 araC::acrD": {"tested_on": "EKO-35 araC::acrD", "assay": "MIC susceptibility profiling, efflux platform", "how_it_was_run": "as §1"}, "EKO-35 araC::acrEF": {"tested_on": "EKO-35 araC::acrEF", "assay": "MIC susceptibility profiling, efflux platform", "how_it_was_run": "as §1"}, "EKO-35 araC::emrAB": {"tested_on": "EKO-35 araC::emrAB", "assay": "MIC susceptibility profiling, efflux platform", "how_it_was_run": "as §1"}, "EKO-35 araC::emrKY": {"tested_on": "EKO-35 araC::emrKY", "assay": "MIC susceptibility profiling, efflux platform", "how_it_was_run": "as §1"}, "EKO-35 araC::macAB": {"tested_on": "EKO-35 araC::macAB", "assay": "MIC susceptibility profiling, efflux platform", "how_it_was_run": "as §1"}, "EKO-35 araC::mdtBC": {"tested_on": "EKO-35 araC::mdtBC", "assay": "MIC susceptibility profiling, efflux platform", "how_it_was_run": "as §1"}, "EKO-35 araC::mdtEF": {"tested_on": "EKO-35 araC::mdtEF", "assay": "MIC susceptibility profiling, efflux platform", "how_it_was_run": "as §1"}, "[2]": {"tested_on": "EKO-35 araC::mexCD (MexCD from P. aeruginosa)", "assay": "MIC susceptibility profiling, efflux platform", "how_it_was_run": "as §1"}, "wild-type (WT) K-12-Pore": {"tested_on": "wild-type (WT) K-12-Pore", "assay": "microbe, parasite or virus in culture", "conditions": "technical duplicate", "how_it_was_run": "(§2)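 Strains carry the fhuA ΔC/Δ4L pore integrated between glmS and pstS under a constitutive promoter, with pore activity checked by vancomycin susceptibility. Overnight LB cultures were adjusted in PBS pH 7.4 to OD600 ~1.0 and diluted 1/2000 into MHB II. 2-fold compound titrations were read by OD600 after 18 h at 37 °C.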"}, "ΔtolC-Pore": {"tested_on": "ΔtolC-Pore", "assay": "microbe, parasite or virus in culture", "conditions": "technical duplicate", "how_it_was_run": "as §2"}, "EKO-35-Pore": {"tested_on": "EKO-35-Pore", "assay": "MIC susceptibility profiling, porinated strain", "how_it_was_run": "as §2"}, "EKO-35 araC::acrB Pore": {"tested_on": "EKO-35 araC::acrB Pore", "assay": "MIC susceptibility profiling, porinated efflux platform", "how_it_was_run": "as §2"}, "EKO-35 araC::mdtBC Pore": {"tested_on": "EKO-35 araC::mdtBC Pore", "assay": "MIC susceptibility profiling, porinated efflux platform", "how_it_was_run": "as §2"}, "EKO-35 araC::mdtEF Pore": {"tested_on": "EKO-35 araC::mdtEF Pore", "assay": "MIC susceptibility profiling, porinated efflux platform", "how_it_was_run": "as §2"}, "[3]": {"conditions": "Table 13A, non-porinated, technical duplicate"}, "[4]": {"conditions": "Table 13B, non-porinated, technical duplicate"}, "[5]": {"conditions": "Table 14A, porinated, technical duplicate"}},
  "data": [
    {"compound": "C[C@H](CCC(=O)NCCS(=O)(=O)[O-])[C@H]1CC[C@H]2[C@@H]3CC[C@@H]4C[C@H](O)CC[C@]4(C)[C@H]3C[C@H](O)[C@]12C.[Na+]", "note": "[sodium taurodeoxycholate]", "values": [
      {"measurement": "Fold change of MICs", "setting": "E. coli EKO-35; EKO-35 compared to EKO-35 (reference)", "value": 1, "unit": "fold"},
      {"measurement": "Minimum inhibitory concentration (MIC), EKO-35", "setting": "E. coli EKO-35; Table 10, without pore, technical duplicate", "value": 500, "unit": "µg/mL"},
      {"measurement": "Minimum Inhibitory Concentration, EKO-35", "setting": "E. coli EKO-35; [3]", "value": 500, "unit": "µg/mL"},
      {"measurement": "Minimum inhibitory concentration (MIC), ΔtolC", "setting": "E. coli ΔtolC; Table 10, without pore", "value": 250, "unit": "µg/mL"},
      {"measurement": "Minimum Inhibitory Concentration, ΔtolC", "setting": "E. coli ΔtolC; Table 13A, non-porinated", "value": 250, "unit": "µg/mL"},
      {"measurement": "Minimum inhibitory concentration (MIC), K-12", "setting": "[1]; Table 10, without pore", "value": 1000, "unit": "µg/mL"},
      {"measurement": "Minimum Inhibitory Concentration, K-12", "setting": "[1]; Table 13A, non-porinated", "value": 1000, "unit": "µg/mL"},
      {"measurement": "Fold change of MICs", "setting": "EKO-35 araC::acrBD408A; EKO-35 araC::acrBD408A compared to EKO-35", "value": 2, "unit": "fold"},
      {"measurement": "Minimum Inhibitory Concentration, EKO-35 araC::acrBD408A", "setting": "EKO-35 araC::acrBD408A; [4]", "value": 1000, "unit": "µg/mL"},
      {"measurement": "Fold change of MICs", "setting": "EKO-35 araC::acrB; EKO-35 araC::acrB compared to EKO-35", "value": 2, "unit": "fold"},
      {"measurement": "Minimum Inhibitory Concentration, EKO-35 araC::acrB", "setting": "EKO-35 araC::acrB; [3]", "value": 1000, "unit": "µg/mL"},
      {"measurement": "Fold change of MICs", "setting": "EKO-35 araC::acrD; EKO-35 araC::acrD compared to EKO-35", "value": 2, "unit": "fold"},
      {"measurement": "Minimum Inhibitory Concentration, EKO-35 araC::acrD", "setting": "EKO-35 araC::acrD; [3]", "value": 1000, "unit": "µg/mL"},
      {"measurement": "Fold change of MICs", "setting": "EKO-35 araC::acrEF; EKO-35 araC::acrEF compared to EKO-35", "value": 2, "unit": "fold"},
      {"measurement": "Minimum Inhibitory Concentration, EKO-35 araC::acrEF", "setting": "EKO-35 araC::acrEF; [3]", "value": 1000, "unit": "µg/mL"},
      {"measurement": "Fold change of MICs", "setting": "EKO-35 araC::emrAB; EKO-35 araC::emrAB compared to EKO-35", "value": 2, "unit": "fold"},
      {"measurement": "Minimum Inhibitory Concentration, EKO-35 araC::emrAB", "setting": "EKO-35 araC::emrAB; [4]", "value": 1000, "unit": "µg/mL"},
      {"measurement": "Fold change of MICs", "setting": "EKO-35 araC::emrKY; EKO-35 araC::emrKY compared to EKO-35", "value": 1, "unit": "fold"},
      {"measurement": "Minimum Inhibitory Concentration, EKO-35 araC::emrKY", "setting": "EKO-35 araC::emrKY; [4]", "value": 500, "unit": "µg/mL"},
      {"measurement": "Fold change of MICs", "setting": "EKO-35 araC::macAB; EKO-35 araC::macAB compared to EKO-35", "value": 1, "unit": "fold"},
      {"measurement": "Minimum Inhibitory Concentration, EKO-35 araC::macAB", "setting": "EKO-35 araC::macAB; [4]", "value": 250, "unit": "µg/mL"},
      {"measurement": "Fold change of MICs", "setting": "EKO-35 araC::mdtBC; EKO-35 araC::mdtBC compared to EKO-35", "value": 2, "unit": "fold"},
      {"measurement": "Minimum Inhibitory Concentration, EKO-35 araC::mdtBC", "setting": "EKO-35 araC::mdtBC; [4]", "value": 1000, "unit": "µg/mL"},
      {"measurement": "Fold change of MICs", "setting": "EKO-35 araC::mdtEF; EKO-35 araC::mdtEF compared to EKO-35", "value": 2, "unit": "fold"},
      {"measurement": "Minimum Inhibitory Concentration, EKO-35 araC::mdtEF", "setting": "EKO-35 araC::mdtEF; [3]", "value": 1000, "unit": "µg/mL"},
      {"measurement": "Fold change of MICs", "setting": "[2]; EKO-35 araC::mexCD compared to EKO-35", "value": 2, "unit": "fold"},
      {"measurement": "Minimum Inhibitory Concentration, EKO-35 araC::mexCD", "setting": "[2]; [4]", "value": 1000, "unit": "µg/mL"},
      {"measurement": "Minimum inhibitory concentration (MIC), Pore K-12", "setting": "wild-type (WT) K-12-Pore; Table 10, with pore", "value": 1000, "unit": "µg/mL"},
      {"measurement": "Minimum inhibitory concentration, K-12 (WT)-Pore", "setting": "wild-type (WT) K-12-Pore; Table 14A, porinated", "value": 1000, "unit": "µg/mL"},
      {"measurement": "Minimum inhibitory concentration (MIC), Pore ΔtolC", "setting": "ΔtolC-Pore; Table 10, with pore", "value": 250, "unit": "µg/mL"},
      {"measurement": "Minimum inhibitory concentration, ΔtolC-Pore", "setting": "ΔtolC-Pore; Table 14A, porinated", "value": 250, "unit": "µg/mL"},
      {"measurement": "Fold changes of MICs", "setting": "EKO-35-Pore; EKO-35-Pore compared to EKO-35-Pore (reference)", "value": 1, "unit": "fold"},
      {"measurement": "Minimum inhibitory concentration (MIC), Pore EKO-35", "setting": "EKO-35-Pore; Table 10, with pore, technical duplicate", "value": 250, "unit": "µg/mL"},
      {"measurement": "Minimum inhibitory concentration, EKO-35-Pore", "setting": "EKO-35-Pore; [5]", "value": 250, "unit": "µg/mL"},
      {"measurement": "efflux pump-mediated resistance vs EKO-35-Pore", "setting": "EKO-35 araC::acrB Pore; AcrB with the pore", "value": "increased resistance"},
      {"measurement": "Fold changes of MICs", "setting": "EKO-35 araC::acrB Pore; EKO-35 araC::acr-B Pore compared to EKO-35-Pore", "value": 4, "unit": "fold"},
      {"measurement": "Minimum inhibitory concentration, EKO-35 araC::acrB Pore", "setting": "EKO-35 araC::acrB Pore; [5]", "value": 1000, "unit": "µg/mL"},
      {"measurement": "Fold changes of MICs", "setting": "EKO-35 araC::mdtBC Pore; EKO-35 araC::mdtBC Pore compared to EKO-35-Pore", "value": 4, "unit": "fold"},
      {"measurement": "Minimum inhibitory concentration", "setting": "EKO-35 araC::mdtBC Pore; EKO-35 araC::mdtBC Pore, technical duplicate", "value": 1000, "unit": "µg/mL"},
      {"measurement": "efflux pump-mediated resistance vs EKO-35-Pore", "setting": "EKO-35 araC::mdtBC Pore; MdtBC with the pore", "value": "associated MdtBC with resistance"},
      {"measurement": "Fold changes of MICs", "setting": "EKO-35 araC::mdtEF Pore; EKO-35 araC::mdtEF Pore compared to EKO-35-Pore", "value": 4, "unit": "fold"},
      {"measurement": "efflux pump-mediated resistance vs EKO-35-Pore", "setting": "EKO-35 araC::mdtEF Pore; MdtEF with the pore", "value": "increased resistance"},
      {"measurement": "Minimum inhibitory concentration, EKO-35 araC::mdtEF Pore", "setting": "EKO-35 araC::mdtEF Pore; [5]", "value": 1000, "unit": "µg/mL"}
    ]}
  ]
}
